Laboratory results from US9409876B2, “Bradykinin receptor antagonists and pharmaceutical compositions containing them” (DOMPE' FARMACEUTICI S.P.A., priority 2013, dated 2016).
Like-named read-outs stand apart in the source and are kept apart here.

How the values were obtained:
[1] = test system: CCI-induced mechanical allodynia; test: Chronic constriction model of pain, mechanical allodynia; format: in vivo, rat
Method: An evaluation of the in vivo activity of compound 8 (R,R) was performed by testing the inhibition potential in mechanical allodynia using the chronic constriction model of pain.
Male Sprague-Dawley (SD) derived rats weighing 180±20 g (at arrival) were provided by BioLasco Taiwan (under Charles River Laboratories Technology Licensee). Space allocation for 5 animals per cage was 45×23×21 cm and maintained in a controlled temperature (20-24° C.) and humidity (50%-80%) environment with 12 hours light/dark cycles for at least three days in Ricerca Biosciences, LLC (Taipei, Taiwan) Laboratory prior to use. Free access to standard lab chow for rats [MF-18 (Oriental Yeast Co., Ltd., Japan)] and tap water was granted. All aspects of this work including housing, experimentation and disposal of animals were performed in general accordance with the Guide for the Care and Use of Laboratory Animals (National Academy Press, Washington, D. C., 2010).
Neuropathic pain behavior was induced by ligation of the sciatic nerve according to the method described by Bennett and Xie [Bennett G. J. and Xie Y. K. A peripheral mononeuropathy in rat that produces disorders of pain sensation like those seen in man, Pain, (1988) 33:87-107]. Briefly, rats were anaesthetized under pentobarbital (50 mg/kg, 5 mL/kg, IP) anesthesia and the sciatic nerve was exposed at mid-thigh level. […]
The rats had access to food and water up to the time of the experiment, and then were placed under inverted Plexiglas cages on a wire mesh rack and allowed to acclimate for 20 to 30 minutes. Allodynia was evaluated using the Chaplin “up/down” method using von Frey hairs [Chaplan, S. R, Bach, F. W., Pogrel, J. W., Chung, J. M. and Yaksh, T. L. Quantitative assessment of tactile allodynia in the rat paw. […]
The threshold of response of the treated rats was compared to respective vehicle treated rats; two-way ANOVA followed by Bonferroni's test was used for comparison between vehicle and treated groups. […] The delta change value at each time point was also calculated. […]

[2] = Pharmacokinetics after IV administration, brain penetration assessment; format: in vivo, rat; conditions: for concentration at 60 min / concentration at 240 min / concentration at 15 min: iv, 7.5 mg/kg
Method: In three of the rats tested in Example 56, indicated as R1, […], also the pharmacokinetic profile of compound 8 (R,R) was evaluated. The results are summarised in Tables III to IV and in FIGS. 1-4.
In tables III and V, T1/2 means the half-time of the compound, Tmax means the time at which the concentration of the compound reaches the maximum level, Cmax means the maximal concentration, Tlast means the latest time-point at which the concentration of the compound can be measured, Clast means the concentration at the latest time-point at which the concentration of the compound can be measured, AUClast means the area under the curve at the latest time-point at which the concentration of the compound can be measured, AUCinf_obs means the area under the curve which is infinitely extrapolated and MRTlast means the mean residence time at the latest time-point at which the concentration of the compound can be measured.
In tables IV and VI, LLOQ means lower limit of quantification.
Brain penetration was performed by IV administration at 7.5 mg/kg.

[3] = Metabolic stability in liver microsomes with NADPH; format: in vitro ADME; conditions: Wistar, rat, microsomes 0.5 mg/ml, pH 7.4, with NADPH, read-out: intrinsic clearance (CLint)
Method: Metabolic stability of compound 8 (R,R) was also determined in rat wistar liver microsomes in the in the presence of NADPH.
The concentration of the compound 8 (R,R) was 1 μM and microsomes 0.5 mg/ml in phosphate buffer 0.1M pH 7.4 with NADPH.
The degradation of the substrates was measured in duplicate by LC/MS/MS during six time points of incubation.

[4] = IV 7.5 mg/kg, Time 480, Average
[5] = Sprague-Dawley (SD), rat, IV 7.5 mg/kg, Brain
[6] = Sprague-Dawley (SD), rat, IV 7.5 mg/kg, Plasma
[7] = Sprague-Dawley, rat, IV 7.5 mg/kg, Brain

SMILES: COc1ccccc1CN(C(=O)CC(C)C)[C@@H](C(=O)NC[C@H]1CCCO1)c1ccc(C)cc1 [Compound 8 (R,R), 3-methyl-N-(2-methoxybenzyl)-N-{[(1R)-1-(4-methylphenyl)]-2-oxo-2-[(2R)-(tetrahydrofuran-2-ylmethyl)amino]ethyl}butanamide]
- significant reversal of CCI-induced mechanical allodynia ([1]; 30 mg/kg IV, 2 and 3 hours post-dose): not at 2 and 3 hours post-dose
- inhibition of CCI-induced mechanical allodynia ([1]; 30 mg/kg IV, 1 hour post-dose): 37%
- inhibitory activity on allodynia ([1]; chronic constriction model of pain): strong inhibitory activity on allodynia
- Tlast ([2]; IV 7.5 mg/kg, Brain): 60 min
- Tlast ([2]; IV 7.5 mg/kg, Plasma): 240 min
- Brain level ([2]; IV 7.5 mg/kg, Time 15, Average): 635.1 ng/g
- Brain level ([2]; IV 7.5 mg/kg, Time 15, R1): 619.3 ng/g
- Brain level ([2]; IV 7.5 mg/kg, Time 15, R2): 446.05 ng/g
- Brain level ([2]; IV 7.5 mg/kg, Time 15, R3): 839.85 ng/g
- Brain level ([2]; IV 7.5 mg/kg, Time 240, Average): <LLOQ
- Brain level ([2]; IV 7.5 mg/kg, Time 240, R1): <LLOQ
- Brain level ([2]; IV 7.5 mg/kg, Time 240, R2): <LLOQ
- Brain level ([2]; IV 7.5 mg/kg, Time 240, R3): <LLOQ
- Brain level [2, 4]: <LLOQ
- plasma level [2, 4]: <LLOQ
- Brain level ([2]; IV 7.5 mg/kg, Time 480, R1): <LLOQ
- plasma level ([2]; IV 7.5 mg/kg, Time 480, R1): <LLOQ
- Brain level ([2]; IV 7.5 mg/kg, Time 480, R2): <LLOQ
- plasma level ([2]; IV 7.5 mg/kg, Time 480, R2): <LLOQ
- Brain level ([2]; IV 7.5 mg/kg, Time 480, R3): <LLOQ
- plasma level ([2]; IV 7.5 mg/kg, Time 480, R3): <LLOQ
- concentration at 60 min ([2]; Sprague-Dawley (SD), rat, brain, Brain, read-out: Clast): 48.8 ng/mL
- concentration at 240 min ([2]; Sprague-Dawley (SD), rat, plasma, Plasma, read-out: Clast): 4.2 ng/mL
- AUC(0-t) [2, 5]: 523 ng·h/mL
- MRT last [2, 5]: 11.2 min
- AUC(0-t) [2, 6]: 1200 ng·h/mL
- MRT last [2, 6]: 15.9 min
- Tmax [2, 6]: 15 min
- half-life ([2]; Sprague-Dawley (SD), rat, IV 7.5 mg/kg, Plasma, read-out: T½): 12.5 min
- concentration at 60 min ([2]; Sprague-Dawley, rat, brain, Time 60, Average, read-out: Brain level): 48.8 ng/g
- concentration at 60 min ([2]; Sprague-Dawley, rat, brain, Time 60, R1, read-out: Brain level): 62.1 ng/g
- concentration at 60 min ([2]; Sprague-Dawley, rat, brain, Time 60, R2, read-out: Brain level): 34.6 ng/g
- concentration at 60 min ([2]; Sprague-Dawley, rat, brain, Time 60, R3, read-out: Brain level): 49.5 ng/g
- Kp ([2]; Sprague-Dawley, rat, brain, IV 7.5 mg/kg, average on the AUC ratio): ~0.43
- concentration at 15 min ([2]; Sprague-Dawley, rat, plasma, Time 15, Average, read-out: Plasma level): 1400 ng/mL
- concentration at 15 min ([2]; Sprague-Dawley, rat, plasma, Time 15, R1, read-out: Plasma level): 1600 ng/mL
- concentration at 15 min ([2]; Sprague-Dawley, rat, plasma, Time 15, R2, read-out: Plasma level): 1140 ng/mL
- concentration at 15 min ([2]; Sprague-Dawley, rat, plasma, Time 15, R3, read-out: Plasma level): 1470 ng/mL
- concentration at 60 min ([2]; Sprague-Dawley, rat, plasma, Time 60, Average, read-out: Plasma level): 162 ng/mL
- concentration at 60 min ([2]; Sprague-Dawley, rat, plasma, Time 60, R1, read-out: Plasma level): 123 ng/mL
- concentration at 60 min ([2]; Sprague-Dawley, rat, plasma, Time 60, R2, read-out: Plasma level): 157 ng/mL
- concentration at 60 min ([2]; Sprague-Dawley, rat, plasma, Time 60, R3, read-out: Plasma level): 205 ng/mL
- concentration at 240 min ([2]; Sprague-Dawley, rat, plasma, Time 240, Average, read-out: Plasma level): 4.2 ng/mL
- concentration at 240 min ([2]; Sprague-Dawley, rat, plasma, Time 240, R1, read-out: Plasma level): 4.05 ng/mL
- concentration at 240 min ([2]; Sprague-Dawley, rat, plasma, Time 240, R2, read-out: Plasma level): 3.35 ng/mL
- concentration at 240 min ([2]; Sprague-Dawley, rat, plasma, Time 240, R3, read-out: Plasma level): 5.2 ng/mL
- Cmax [2, 7]: 635 ng/g
- Tmax [2, 7]: 15 min
- Cmax ([2]; Sprague-Dawley, rat, IV 7.5 mg/kg, Plasma): 1400 ng/mL
- microsomal CLint at 1 μM [3]: 851 µL/min/mg
